This is an account of results in US20090197967A1, “COMPOSITIONS AND METHODS FOR TREATMENT OF OPHTHALMIC DISEASES AND DISORDERS” (priority 2006, published 2009).

The target in experiment [1] is T1, visual cycle trans-cis isomerohydrolase (isomerase) (Bos taurus, UniProt Q28175).
T1 construct: Bovine Retinal Pigment Epithelium (RPE) microsome membranes were the source of visual cycle trans-cis isomerohydrolase (isomerase); from tissue; host or cells: bovine retinal pigment epithelium (RPE) microsome membranes; CRALBP made in E. coli
T1 sequence (Q28175 2-533 limits assumed): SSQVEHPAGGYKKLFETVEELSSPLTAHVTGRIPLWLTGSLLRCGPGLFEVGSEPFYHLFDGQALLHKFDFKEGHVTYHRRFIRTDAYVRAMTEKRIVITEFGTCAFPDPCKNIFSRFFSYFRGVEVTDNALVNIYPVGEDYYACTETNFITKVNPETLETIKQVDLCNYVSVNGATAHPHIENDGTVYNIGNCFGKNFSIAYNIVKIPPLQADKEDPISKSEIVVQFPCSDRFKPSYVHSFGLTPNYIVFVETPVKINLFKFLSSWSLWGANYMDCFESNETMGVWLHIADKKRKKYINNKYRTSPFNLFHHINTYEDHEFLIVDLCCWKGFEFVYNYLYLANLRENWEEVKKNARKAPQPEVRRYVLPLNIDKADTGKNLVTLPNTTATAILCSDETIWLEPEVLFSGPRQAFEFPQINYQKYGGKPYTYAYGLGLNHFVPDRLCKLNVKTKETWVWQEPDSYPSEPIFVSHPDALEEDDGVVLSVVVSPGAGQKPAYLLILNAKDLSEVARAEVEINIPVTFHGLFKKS
The experiment is described as follows: Isomerase reaction: inhibition of isomerase by retinylamine derivative compounds (bovine RPE microsomes, HPLC read-out). The note with it: 5 min preincubation at 37° C., 10 μM all-trans-retinol, 6 μM apo-CRALBP, 30 minutes. It is filed as biochemical. How it is done: The capability of several retinylamine compounds to inhibit the activity of visual cycle trans-cis isomerohydrolase (isomerase) was determined.
Isomerase and LRAT reaction—The isomerase reaction was performed essentially as described previously (Stecher et al., J Biol Chem 274:8577-85 (1999); see also Golczak et al., supra). Bovine Retinal Pigment Epithelium (RPE) microsome membranes were the source of visual cycle trans-cis isomerohydrolase (isomerase).
RPE microsome membrane extracts may be purchased or prepared according to methods practiced in the art and stored at −80° C. Crude RPE microsome extracts were thawed in a 37° C. water bath, and then immediately placed on ice. 50 ml crude RPE microsomes were placed into a 50 ml Teflon-glass homogenizer (Fisher Scientific, catalog no. 0841416M) on ice, powered by a hand-held DeWalt drill, and homogenized ten times up and down on ice under maximum speed. This process was repeated until the crude RPE microsome solution was homogenized. The homogenate was then subjected to centrifugation (50.2 Ti rotor (Beckman, Fullerton, Calif.), 13,000 RPM; 15360 Rcf) for 15 minutes at 4° C. The supernatant was collected and subjected to centrifugation a5 42,000 RPM (160,000 Rcf, 50.2 Ti rotor) for 1 hour at 4° C. The supernatant was removed, and the pellets were suspended in 12 ml (final volume) cold 10 mM MOPS buffer, pH 7.0. The resuspended RPE membranes in 5 ml aliquots were homogenized in a glass-to-glass homogenizer (Fisher Scientific, catalog no. K885500-0021) to high homogeneity. Protein concentration was quantified using the BCA protein assay according to the manufacturer's protocol (Pierce, Rockford, Ill.; catalog no. 23227). The homogenized RPE preparations were stored at −80° C.
Recombinant human apo cellular retinaldehyde-binding protein (CRALBP) was cloned and expressed according to standard methods in the molecular biology art (see Crabb et al., Protein Science 7:746-57 (1998); Crabb et al., J. Biol. Chem. 263:18688-92 (1988)). Briefly, total RNA was prepared from confluent ARPE19 cells (American Type Culture Collection, Manassas, Va.), cDNA was synthesized using an oligo(dT)12-18 primer, and then DNA encoding CRALBP was amplified by two sequential polymerase chain reactions (see Crabb et al., J. Biol. Chem. 263:18688-92 (1988); Intres, et al., J. Biol. Chem. 269:25411-18 (1994); GenBank Accession No. L34219.1). The PCR product was sub-cloned into pTrcHis2-TOPO TA vector according to the manufacturer's protocol (Invitrogen Inc., Carlsbad, Calif.; catalog no. K4400-01), and then the sequence was confirmed according to standard nucleotide sequencing techniques. Recombinant 6×His-tagged human CRALBP was expressed in One Shot TOP 10 chemically competent E. coli cells (Invitrogen), and the recombinant polypeptide was isolated from E. coli cell lysates by nickel affinity chromatography using Ni Sepharose XKI 6-20 columns for HPLC (Amersham Bioscience, Pittsburgh, Pa.; catalog no. 17-5268-02). The purified 6×His-tagged human CRALBP was dialyzed against 10 mM bis-tris-Propane (BTP) and analyzed by SDS-PAGE. The molecular weight of the recombinant human CRALBP was approximately 39 kDal.
The isomerase assay was performed in 10 mM BTP buffer, pH 7.5, 1% BSA, containing 1 mM ATP and 6 μM apo-CRALBP (cellular retinaldehyde-binding protein). To investigate inhibition properties of retinylamine derivative compounds, RPE microsomes were preincubated for 5 min in 37° C. with a compound in 10 mM BTP buffer, pH 7.5, 1% BSA, and 1 mM ATP prior to addition of apo-CRALBP and 10 μM all-trans-retinol. Retinylamine derivative compounds were delivered to the reaction mixture in 2 μl ethanol. If the compounds were not soluble in ethanol, DMF was added until the compound was in solution. The same volume of ethanol and/or DMF was added to the control reaction (absence of test compound). […]

Experiment [2] deals with RXR. The settings on record: at micromolar concentrations; cited from earlier work.
Experiment [3] relates to RAR. The settings on record: at micromolar concentrations; cited from earlier work.

Take `CC1=C(/C=C/C(C)=C2C=C/C(=C/CN)CC/2)C(C)(C)CCC1` [Cmpd 2]: the IC50 – broadly, the midpoint of a concentration-inhibition curve – in experiment [1] came out at 0.55 µM.

Consider `CC1=C(/C=C/C(C)=C/C=C\CCCN)C(C)(C)CCC1` [Cmpd 8], for which the IC50 in experiment [1] turned out to be 0.6 µM. On the same count and under the same terms, for `CC1=C(/C=C/C(C)=C/C=C/CN)C(C)(C)CCC1` [Cmpd 4] the value was 5.8 µM.

Take `CC1=C(/C=C/C(C)=C2C=C/C(=C/CN)CCC/2)C(C)(C)CCC1` [Cmpd 1]: the IC50 in experiment [1] was 3.1 µM. Still for that read-out and setting: for `CC1=C(/C=C/C(C)=C/C=C/C(C)=C/CN)C(C)(C)CCC1` [Cmpd 3] the value was 0.7 µM; for `CC1=C(/C=C/C(C)=C/C=C/CCCCN)C(C)(C)CCC1` [Cmpd 10], 14 µM. For the molecule `CC(=CCCCCN)/C=C/C1=C(C)CCCC1(C)C` [Cmpd 5], the IC50 in experiment [1] amounted to 1.7 µM.

`CC1=C(/C=C/C(C)N)C(C)(C)CCC1` (stereo not drawn) [Cmpd 14]: the IC50 in experiment [1] is 80 µM.

`CC1=C(/C=C/C(C)=C/CN)C(C)(C)CCC1` [Cmpd 7]: the IC50 in experiment [1] was found to be 8.4 µM. Still for that read-out and setting: the same measure for `CC1=C(/C=C/C(C)=C/C=C/C(C)=C/CN)C(C)(C)CCC1OCc1ccccc1` (stereo not drawn) [Cmpd 11]: 17 µM; for `CC1=C(/C=C/C(C)=C/C=C/CCCCCCN)C(C)(C)CCC1` [Cmpd 13]: 200 µM. As for `CC1=C(/C=C/C(C)=C/C=C/C(C)=C/CN)C(C)(C)CCC1` [Ret-NH2, retinylamine], in experiment [2], the “interaction with RXR” value is “does not interact”. For the same molecule, the “interaction with RAR” value in experiment [3] is listed as “does not interact”.

Turning to `CC1=C(/C=C/C(C)=C/C=C/CCCN)C(C)(C)CCC1` [Cmpd 9], the IC50 in experiment [1] is 6 µM. On the same count and under the same terms, for `CC1=C(/C=C/C(C)=C/C=CCCCCCCN)C(C)(C)CCC1` [Cmpd 12] the value was 25 µM.
